Where a name gives a salt, the structure may show the parent alone.
Target: Prothrombin (Homo sapiens, UniProt P00734)
Experiment: Inhibition of Thrombin
Conditions: read-out: kon (M-1-s-1)

SMILES	kon [M⁻¹ s⁻¹]
NC1CCC(CNC(=O)[C@@H]2CCCN2C(=O)CC2c3ccccc3C=Cc3ccccc32)CC1 (stereo partly drawn) [(S)-1-(2-5H-Dibenzo[a,d]cyclohepten-5-yl-acetyl)-pyrrolidine-2-carboxylic acid (4-amino-cyclohexylmethyl)-amide; hydrochloride]	1.8e+08
NC1CCC(CNC(=O)[C@@H]2CCCN2C(=O)CC(C2CCCCC2)C2CCCCC2)CC1 (stereo partly drawn) [(S)-1-(3,3-Dicyclohexyl-propionyl)-pyrrolidine-2-carboxylic acid (4-amino-cyclohexylmethyl)-amide; hydrochloride]	2.3e+08
NC1CCC(CNC(=O)[C@@H]2CCCN2C(=O)CC(c2ccccc2)c2ccccc2)CC1 (stereo partly drawn) [(S)-1-(3,3-Diphenyl-propionyl)-pyrrolidine-2-carboxylic acid (4-amino-cyclohexylmethyl)-amide; TFA]	2.1e+08
NC1CCC(CNC(=O)[C@@H]2CCCN2C(=O)CC(c2cccnc2)c2ccc3c(c2)OCO3)CC1 (stereo partly drawn) [(S)-1-(3-Benzo[1,3]dioxol-5-yl-3-pyridin-3-yl-propionyl)-pyrrolidine-2-carboxylic acid (4-amino-cyclohexylmethyl)-amide; TFA]	2.51e+08
NC1CCC(CNC(=O)[C@@H]2CCCN2C(=O)CC(c2ccccc2)c2ccccn2)CC1 (stereo partly drawn) [(S)-1-(3-Phenyl-3-pyridin-2-yl-propionyl)-pyrrolidine-2-carboxylic acid (4-amino-cyclohexylmethyl)-amide; TFA]	1.8e+08
NC1CCC(CNC(=O)[C@@H]2CCCN2C(=O)CC(c2ccccc2)c2cccnc2)CC1 (stereo partly drawn) [(S)-1-(3-Phenyl-3-pyridin-3-yl-propionyl)-pyrrolidine-2-carboxylic acid (4-amino-cyclohexylmethyl)-amide; TFA]	2.1e+08
NC1CCC(CNC(=O)[C@@H]2CCCN2C(=O)CC(c2ccccc2)c2ccncc2)CC1 (stereo partly drawn) [(S)-1-(3-Phenyl-3-pyridin-4-yl-propionyl)-pyrrolidine-2-carboxylic acid (4-amino-cyclohexylmethyl)-amide; TFA]	1.55e+08

From BindingDB's records for doi:10.1021/jm970397q (Merck Research Laboratories, 1997)
